In US6221847A, “Composition and method for treating bacterial infection” (Clemson University, priority 1999, dated 2001):

Tests used:
Format in all cases: cell-based
[1] = system: Propionibacterium avidum ATCC 25577; assay: Spot on lawn method (Example IV), nisin; details: 4,000 International Units per milliliter
Experimental: (§1) Propionibacterium acnes, Propionibacterium granulosum, or other cutaneous propionibacteria to be examined for sensitivity to the bacteriocin are grown in actinomyces broth at 37° C. for 2 days under anaerobic conditions. Cultures (15 μL) being examined for sensitivity are added to soft actinomyces agar (5 ml) and the mixture is applied uniformly over each actinomyces agar plate. Preparations concentrated so as to contain 6,400 Activity Units/ml of bacteriocins are spotted (25 μl spots) onto the surface of the prepared plates. These plates are held at 37° C. for 2 days under anaerobic conditions to permit growth of the cutaneous culture and examined for zones of inhibition (lack of growth) where the bacteriocin was applied. Zones are evidence of bacteriocin inhibition.
(§2) Specifically, a solution of nisin containing 4,000 International Units per milliliter was tested for activity against Propionibacterium acnes ATCC 6919, Propionibacterium acnes ATCC 11827, Propionibacterium avidum ATCC 25577 and Propionibacterium granulosum ATCC 25564 according to the method described in Example IV above. It was observed that nisin inhibited all of the cutaneous cultures.

[2] = system: Propionibacterium acnes ATCC 11827; assay: Spot on lawn method (Example IV), nisin; details: 4,000 International Units per milliliter
Experimental: as §1, §2

[3] = system: Propionibacterium granulosum ATCC 25564; assay: Spot on lawn method (Example IV), nisin; details: 4,000 International Units per milliliter
Experimental: as §1, §2

[4] = system: Propionibacterium acnes ATCC 6919; assay: Spot on lawn method (Example IV), nisin; details: 4,000 International Units per milliliter
Experimental: as §1, §2

[5] = system: Propionibacterium avidum ATCC 25577; assay: Broth culture growth with nisin; details: 400 International Units per milliliter, anaerobic, 37° C., 24 hours
Experimental: (§3) Nisin at a final concentration of 400 International Units per milliliter was also added to broth cultures of each of the above bacteria strains. The broth cultures were incubated anaerobically at 37° C. for 24 hours.

[6] = system: Propionibacterium acnes ATCC 11827; assay: Broth culture growth with nisin; details: 400 International Units per milliliter, anaerobic, 37° C., 24 hours
Experimental: as §3

[7] = system: Propionibacterium granulosum ATCC 25564; assay: Broth culture growth with nisin; details: 400 International Units per milliliter, anaerobic, 37° C., 24 hours
Experimental: as §3

[8] = system: Propionibacterium acnes ATCC 6919; assay: Broth culture growth with nisin; details: 400 International Units per milliliter, anaerobic, 37° C., 24 hours
Experimental: as §3

nisin
inhibition (zones) [1]: inhibited | inhibition (zones) [2]: inhibited | inhibition (zones) [3]: inhibited | inhibition (zones) [4]: inhibited | growth of broth culture [5]: markedly reduced the growth | growth of broth culture [6]: markedly reduced the growth | growth of broth culture [7]: markedly reduced the growth | growth of broth culture [8]: markedly reduced the growth
